According to ChEMBL document CHEMBL4393675, “Discovery of (R)-5-((5-(1-methyl-1H-pyrazol-4-yl)-4-(methylamino)pyrimidin-2-yl)amino)-3-(piperidin-3-yloxy)picolinonitrile, a novel CHK1 inhibitor for hematologic malignancies” (Eur J Med Chem, 2019):

Key:
Assay type in all cases: ADME, organism-based
[1] = Volume of distribution at steady state in ICR mouse at 15 mg/kg, iv administered and measured for 1 min to 12 hrs by LC/MS/MS analysis; conditions: in vivo, read-out: Vdss
[2] = AUC (0 to t) in ICR mouse at 15 mg/kg, iv administered and measured for 1 min to 12 hrs by LC/MS/MS analysis; conditions: in vivo
[3] = MRT in ICR mouse at 15 mg/kg, iv administered and measured for 1 min to 12 hrs by LC/MS/MS analysis; conditions: in vivo
[4] = Half life in ICR mouse at 15 mg/kg, iv administered and measured for 1 min to 12 hrs by LC/MS/MS analysis; conditions: in vivo
[5] = Cmax in ICR mouse at 15 mg/kg, iv administered and measured for 1 min to 12 hrs by LC/MS/MS analysis; design: dose 15 mg/kg, route intravenous; conditions: in vivo
[6] = AUC (0 to infinity) in ICR mouse at 15 mg/kg, iv administered and measured for 1 min to 12 hrs by LC/MS/MS analysis; design: dose 15 mg/kg, time infinity, route intravenous; conditions: in vivo

CNc1nc(Nc2cnc(C#N)c(O[C@@H]3CCCNC3)c2)ncc1-c1cnn(C)c1
Vd [1]: 6.42 L/kg | AUC(0-t) [2]: 363 ng·h/mL | MRT [3]: 0.8 h | half-life [4]: 2.23 h | Cmax [5]: 849 ng/mL | AUC [6]: 370 ng·h/mL
